The record followed here is ChEMBL document CHEMBL4270673, “Receptor-Ligand Interaction Measured by Inductively Coupled Plasma Mass Spectrometry and Selenium Labeling” (J Med Chem, 2018).

Each structure is given as a SMILES string. Where a SMILES comes first, the peptide text is derived from it. [ ]: non-standard residue; d: D form. The star is where a group is joined. SeMet = C[Se]CC[C@H](N)C(=O)O; X1 = O=C(C[Se]c1ccccc1)*; Ahx = NCCCCCC(=O)O

The Kd is the constant that tells how readily two partners part at equilibrium. The Ki is a dissociation constant, usually derived from enzyme kinetics or from competition with a known ligand.

The target in test [1] is T1, Gastrin/cholecystokinin type B receptor (Homo sapiens, UniProt P32239).
T1 sequence (P32239 whole entry): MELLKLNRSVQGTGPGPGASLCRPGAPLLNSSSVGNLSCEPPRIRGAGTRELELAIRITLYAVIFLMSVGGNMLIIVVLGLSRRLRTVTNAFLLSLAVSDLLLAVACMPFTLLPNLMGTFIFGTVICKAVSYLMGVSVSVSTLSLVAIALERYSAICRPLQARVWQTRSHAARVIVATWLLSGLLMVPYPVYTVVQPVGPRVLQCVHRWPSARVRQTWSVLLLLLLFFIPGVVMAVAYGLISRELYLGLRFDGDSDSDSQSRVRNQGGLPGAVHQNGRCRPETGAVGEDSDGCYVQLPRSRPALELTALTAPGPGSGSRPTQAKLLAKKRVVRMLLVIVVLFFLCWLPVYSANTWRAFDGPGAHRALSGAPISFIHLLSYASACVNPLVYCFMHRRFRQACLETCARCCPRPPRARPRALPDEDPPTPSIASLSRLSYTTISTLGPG
Put plainly: Binding affinity to CCKB receptor (unknown origin) expressed in HEK cells after 4 hrs by RP-LC-ICPMS analysis. It is filed as cell-based.

In test [2] the target is T1, Gastrin/cholecystokinin type B receptor. As to the kind of experiment: Displacement of non-sulfated CCK-8 from CCKB receptor (unknown origin) expressed in HEK cells after 4 hrs by RP-LC-ICPMS analysis. Type of test: cell-based.
Test [3] has as its target T2, Vasopressin V1a receptor (Homo sapiens, UniProt P37288). As to the kind of experiment: Displacement of [125I]OH-Phpa-LVA from human V1A receptor expressed in CHO cells after 4 hrs by gamma counter analysis. Type of test: cell-based. A general note: Displacement assays read how much labelled ligand stays bound in the presence of the test substance.
Target sequence in this assay (P37288 whole entry): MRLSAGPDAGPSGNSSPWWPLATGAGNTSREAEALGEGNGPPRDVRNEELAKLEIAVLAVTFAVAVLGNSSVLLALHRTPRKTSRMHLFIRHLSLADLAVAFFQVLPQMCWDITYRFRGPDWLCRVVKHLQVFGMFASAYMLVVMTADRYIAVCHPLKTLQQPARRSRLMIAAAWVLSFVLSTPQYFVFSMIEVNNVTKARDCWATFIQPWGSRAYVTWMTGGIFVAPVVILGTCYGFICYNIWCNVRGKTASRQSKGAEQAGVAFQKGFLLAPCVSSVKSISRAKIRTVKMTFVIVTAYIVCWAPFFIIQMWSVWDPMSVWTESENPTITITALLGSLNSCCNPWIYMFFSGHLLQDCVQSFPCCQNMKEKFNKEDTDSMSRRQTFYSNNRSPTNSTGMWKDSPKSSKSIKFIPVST
Test [4] deals with T2, Vasopressin V1a receptor. As to the kind of experiment: Displacement of [Se-Se]-AVP from human V1A receptor expressed in CHO cells after 4 hrs by RP-LC-ICPMS analysis. It is filed as cell-based.
Target sequence in this assay (P37288 whole entry): as above
Test [5] has as its target T2, Vasopressin V1a receptor. Put plainly: Binding affinity to human V1A receptor expressed in CHO cell membranes.
Target sequence in this assay (P37288 whole entry): as above
Test [6] concerns the target T2, Vasopressin V1a receptor. Put plainly: Binding affinity to human V1A receptor expressed in CHO cells after 4 hrs by RP-LC-ICPMS analysis. It is filed as cell-based.
Target sequence in this assay (P37288 whole entry): as above
Test [7] has as its target T2, Vasopressin V1a receptor. Put plainly: Binding affinity to human V1A receptor expressed in CHO cells assessed per million cells after 4 hrs by RP-LC-ICPMS analysis. It is filed as cell-based.
Target sequence in this assay (P37288 whole entry, looked up): as the sequence (P37288 whole entry) above
The target in test [8] is T2, Vasopressin V1a receptor. Put plainly: Displacement of [Ph-Se-acetyl]-LVA from human V1A receptor expressed in CHO cells after 4 hrs by RP-LC-ICPMS analysis. Type of test: cell-based.
Target sequence in this assay (P37288 whole entry): as above
In test [9] the target is T2, Vasopressin V1a receptor. Put plainly: Displacement of [Sez6]-HO-Phpa-LVA from human V1A receptor expressed in CHO cells after 4 hrs by RP-LC-ICPMS analysis. Type of test: cell-based.
Target sequence in this assay (P37288 whole entry): as above

Compound `CSCC[C@H](NC(=O)[C@H](Cc1c[nH]c2ccccc12)NC(=O)CCCCCNC(=O)[C@H](CCCNC(=N)N)NC(=O)C[Se]c1ccccc1)C(=O)N[C@@H](CC(=O)O)C(=O)N[C@@H](Cc1ccccc1)C(N)=O` (X1-R[Ahx]WMDF-NH2) yielded a Kd in test [1] of 29.3 nM. Moreover, in test [2], the Ki is 7.93 nM.
On Vasopressin V1a receptor [3], `N=C(N)NCCC[C@H](NC(=O)[C@@H]1CCCN1C(=O)[C@@H]1C[Se]C[C@H](N)C(=O)N[C@@H](Cc2ccc(O)cc2)C(=O)N[C@@H](Cc2ccccc2)C(=O)N[C@@H](CCC(N)=O)C(=O)N[C@@H](CC(N)=O)C(=O)N1)C(=O)NCC(N)=O` registered a Ki of 1280 nM.
For `N=C(N)NCCC[C@H](NC(=O)[C@@H]1CCCN1C(=O)[C@@H]1C[Se][Se]C[C@H](N)C(=O)N[C@@H](Cc2ccc(O)cc2)C(=O)N[C@@H](Cc2ccccc2)C(=O)N[C@@H](CCC(N)=O)C(=O)N[C@@H](CC(N)=O)C(=O)N1)C(=O)NCC(N)=O`, the results for the Ki at Vasopressin V1a receptor [3] and on Vasopressin V1a receptor [4] were 0.7 nM and 1.7 nM, respectively. In addition, on Vasopressin V1a receptor [5], the Kd lay within 0.6 to 3 nM.
Consider `CCOc1ccc2c(c1)[C@]1(CC[C@H](OCCN3CCOCC3)CC1)C(=O)N2S(=O)(=O)c1ccc(C(=O)NC(C)(C)C)cc1OC`, for which the Ki at Vasopressin V1a receptor [3] was determined as 304 nM; at Vasopressin V1a receptor [4] it was 2950 nM.
For `COc1ccc(C[C@@H](NC(=O)CCc2ccc(O)cc2)C(=O)N[C@@H](Cc2ccccc2)C(=O)N[C@@H](CCC(N)=O)C(=O)N[C@@H](CC(N)=O)C(=O)N[C@@H](CCCNC(=N)N)C(=O)N2CCC[C@H]2C(=O)N[C@@H](CCCNC(=N)N)C(N)=O)cc1`, the Ki on Vasopressin V1a receptor [3] amounted to 0.8 nM; on Vasopressin V1a receptor [4], 0.2 nM.
The compound `COc1ccc(C[C@@H](NC(=O)C[Se]c2ccc(O)cc2)C(=O)N[C@@H](Cc2ccccc2)C(=O)N[C@@H](CCC(N)=O)C(=O)N[C@@H](CC(N)=O)C(=O)N[C@@H](CCCNC(=N)N)C(=O)N2CCC[C@H]2C(=O)N[C@@H](CCCNC(=N)N)C(N)=O)cc1` gave a Kd at Vasopressin V1a receptor [6] of 0.32 nM. Also, the Ki came out at 0.9 nM on Vasopressin V1a receptor [3] and 12.9 nM on Vasopressin V1a receptor [8]. This compound also had a Bmax at Vasopressin V1a receptor [7] of 696 fmol.
For the compound `N=C(N)NCCC[C@@H](NC(=O)[C@@H]1CCCN1C(=O)[C@@H]1C[Se][Se]C[C@H](N)C(=O)N[C@@H](Cc2ccc(O)cc2)C(=O)N[C@@H](Cc2ccccc2)C(=O)N[C@@H](CCC(N)=O)C(=O)N[C@@H](CC(N)=O)C(=O)N1)C(=O)NCC(N)=O`, the Bmax on Vasopressin V1a receptor [7] is 1060 fmol.
In [1], `CSCC[C@H](NC(=O)[C@H](Cc1c[nH]c2ccccc12)NC(=O)CCCCCNC(=O)[C@H](CCCNC(=N)N)NC(=O)[C@H](CC[Se]C)NC(C)=O)C(=O)N[C@@H](CC(=O)O)C(=O)N[C@@H](Cc1ccccc1)C(N)=O` (Ac-[SeMet]R[Ahx]WMDF-NH2) yielded a Kd of 45.5 nM. The compound also displayed a Ki in test [2] of 3.91 nM.
Consider `COc1ccc(C[C@@H](NC(=O)CCc2ccc(O)cc2)C(=O)N[C@@H](Cc2ccccc2)C(=O)N[C@@H](CCC(N)=O)C(=O)N[C@@H](CC(N)=O)C(=O)N[C@@H](CCCNC(=N)N)C(=O)N2C[Se]C[C@H]2C(=O)N[C@@H](CCCNC(=N)N)C(N)=O)cc1`, for which the Kd at Vasopressin V1a receptor [6] is 0.45 nM. Also, the Ki at Vasopressin V1a receptor [3] came to 0.9 nM; at Vasopressin V1a receptor [4], 0.4 nM; on Vasopressin V1a receptor [9] it was 3.8 nM. Further, the Bmax on Vasopressin V1a receptor [7] is 845 fmol.
